# Key:
# mTOR kinase = biological target: T1, mTOR kinase (Homo sapiens, UniProt P42345); assay: mTOR kinase TR-FRET assay; format: biochemical; settings: read-out: mTO R
# T1 construct: purchased Millipore, USA
# How it was run: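 Compounds preincubated 60 min with mTOR (5 ng) in HEPES pH 7.5, EGTA, MnCl2; ULight-p70 S6K Thr389 peptide (50 nM) and ATP (20 μM) then added, 60 min at room temperature. EDTA-stopped, Eu-anti-phospho antibody detection by TR-FRET (665/615 nm); IC50 from variable-slope sigmoidal fit.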
# [1] = biological target: T2, PI3Kα (wild-type), P110/P85α (Homo sapiens, UniProt P42336); assay: PI3 Kinase TR-FRET assay, PI3Kα (wild-type); format: biochemical
# T2 construct: made in house; host or cells: SF9 insect cells
# T2 sequence (P42336 whole entry): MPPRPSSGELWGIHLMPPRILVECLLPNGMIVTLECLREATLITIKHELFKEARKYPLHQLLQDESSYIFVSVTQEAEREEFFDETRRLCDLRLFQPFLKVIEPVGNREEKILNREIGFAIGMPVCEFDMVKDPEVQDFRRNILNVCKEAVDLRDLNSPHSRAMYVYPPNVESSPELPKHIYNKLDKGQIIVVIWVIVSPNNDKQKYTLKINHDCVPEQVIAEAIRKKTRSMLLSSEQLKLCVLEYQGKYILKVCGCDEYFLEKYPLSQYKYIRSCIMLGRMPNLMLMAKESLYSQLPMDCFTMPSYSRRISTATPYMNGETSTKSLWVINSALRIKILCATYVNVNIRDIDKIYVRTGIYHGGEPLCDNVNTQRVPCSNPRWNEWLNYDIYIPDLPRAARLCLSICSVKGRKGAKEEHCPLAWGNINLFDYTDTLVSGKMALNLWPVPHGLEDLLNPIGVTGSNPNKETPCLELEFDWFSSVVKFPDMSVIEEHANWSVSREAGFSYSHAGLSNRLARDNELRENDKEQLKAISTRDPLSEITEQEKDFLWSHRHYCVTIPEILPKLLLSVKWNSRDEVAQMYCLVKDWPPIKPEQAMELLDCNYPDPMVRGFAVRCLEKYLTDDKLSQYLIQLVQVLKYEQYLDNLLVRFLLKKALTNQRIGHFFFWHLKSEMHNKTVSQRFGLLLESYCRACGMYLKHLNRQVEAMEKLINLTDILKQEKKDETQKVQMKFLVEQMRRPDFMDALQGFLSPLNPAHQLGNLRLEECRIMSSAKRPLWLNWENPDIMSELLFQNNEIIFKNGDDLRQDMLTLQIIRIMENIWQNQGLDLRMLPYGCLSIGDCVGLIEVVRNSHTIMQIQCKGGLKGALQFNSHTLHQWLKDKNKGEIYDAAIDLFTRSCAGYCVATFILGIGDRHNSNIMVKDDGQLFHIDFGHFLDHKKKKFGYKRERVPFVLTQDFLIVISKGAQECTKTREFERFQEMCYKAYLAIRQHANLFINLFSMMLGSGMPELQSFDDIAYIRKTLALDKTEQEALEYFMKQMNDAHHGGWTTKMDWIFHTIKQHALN
# T2 sequence (P27986 whole entry partner): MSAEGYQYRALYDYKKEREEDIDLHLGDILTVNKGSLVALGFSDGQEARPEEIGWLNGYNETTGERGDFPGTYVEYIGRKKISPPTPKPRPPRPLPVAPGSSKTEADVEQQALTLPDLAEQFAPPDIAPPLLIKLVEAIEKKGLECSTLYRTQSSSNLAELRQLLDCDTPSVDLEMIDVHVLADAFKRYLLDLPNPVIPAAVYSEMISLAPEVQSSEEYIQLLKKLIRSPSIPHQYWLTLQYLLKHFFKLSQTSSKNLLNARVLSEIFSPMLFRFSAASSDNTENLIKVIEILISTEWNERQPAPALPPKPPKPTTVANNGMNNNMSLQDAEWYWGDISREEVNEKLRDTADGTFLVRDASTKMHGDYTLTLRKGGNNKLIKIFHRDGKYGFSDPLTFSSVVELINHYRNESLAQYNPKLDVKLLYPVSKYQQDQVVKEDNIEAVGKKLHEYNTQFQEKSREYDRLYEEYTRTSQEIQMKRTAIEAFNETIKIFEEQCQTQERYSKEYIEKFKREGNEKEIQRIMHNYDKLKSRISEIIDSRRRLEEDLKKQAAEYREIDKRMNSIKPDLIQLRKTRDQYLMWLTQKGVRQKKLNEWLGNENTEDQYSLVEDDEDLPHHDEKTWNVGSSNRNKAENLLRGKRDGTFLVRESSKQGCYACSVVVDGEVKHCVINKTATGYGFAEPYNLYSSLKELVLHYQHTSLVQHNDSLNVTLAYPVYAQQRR
# How it was run: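 Sf9-expressed His-purified P110/P85α (5 ng) preincubated 60 min RT with compound and PIP2 in buffer with 40 mM MgCl2, 5 mM DTT; reaction started with ATP (PIP2 and ATP both 10 μM), 30 min RT. PIP3 detected by TR-FRET displacement, 665/615 nm ratio; IC50 from dose-response curves.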
structure (smiles),measurement,setting,value
"CC1CN(c2nc(-c3ccc(NC(=O)Nc4ccc(C(=O)N(C)C)cc4)cc3F)nc3cc(-c4cncnc4)ccc23)CCO1 (stereo not shown) [Example 254, 4-(3-(3-fluoro-4-(4-(2-methylmorpholino)-7-(pyrimidin-5-yl)quinazolin-2-yl)phenyl)ureido)-N,N-dimethyl-benzamide]",IC50,mTOR kinase,50 to 200 nM
same,IC50,[1],201 to 10000 nM
"COc1ccc(-c2ccc3c(N4CCOCC4)nc(-c4ccc(NC(=O)Nc5ccc(C(=O)N(C)C)cc5)cc4F)nc3c2)cn1 [Example 258, 4-(3-(3-fluoro-4-(7-(6-methoxypyridin-3-yl)-4-morpholino-quinazolin-2-yl)phenyl)ureido)-N,N-dimethyl-benzamide]",IC50,mTOR kinase,50 to 200 nM
same,IC50,[1],50 to 200 nM
"CN(C)C(=O)c1ccc(NC(=O)Nc2ccc(-c3nc(N4CCOCC4)c4ncc(-c5cccnc5)cc4n3)c(F)c2)cc1 [Example 261, 4-(3-(3-fluoro-4-(4-morpholino-7-(pyridin-3-yl)pyrido[3,2-d]pyrimidin-2-yl)phenyl)ureido)-N,N-dimethyl-benzamide]",IC50,mTOR kinase,< 50 nM
same,IC50,[1],< 50 nM
"CN(C)C(=O)c1ccc(NC(=O)Nc2ccc(-c3nc(N4CCOCC4)c4ncc(-c5cncnc5)cc4n3)cc2)cc1F [Example 262, 2-fluoro-N,N-dimethyl-4-(3-(4-(4-morpholino-7-(pyrimidin-5-yl)pyrido[3,2-d]pyrimidin-2-yl)phenyl)ureido)-benzamide]",IC50,mTOR kinase,< 50 nM
same,IC50,[1],< 50 nM
"COc1ncc(-c2cnc3c(N4CCOCC4)nc(-c4ccc(NC(=O)Nc5ccc(C(=O)N(C)C)cc5)cc4F)nc3c2)cn1 [Example 263, 4-(3-(3-fluoro-4-(7-(2-methoxypyrimidin-5-yl)-4-morpholino-pyrido[3,2-d]pyrimidin-2-yl)phenyl)ureido)-N,N-dimethyl-benzamide]",IC50,mTOR kinase,< 50 nM
same,IC50,[1],< 50 nM
"CN(C)C(=O)c1ccc(NC(=O)Nc2ccc(-c3nc(N4CCOCC4)c4ncc(-c5cccnc5)cc4n3)cc2)cc1F [Example 264, 2-fluoro-N,N-dimethyl-4-(3-(4-(4-morpholino-7-(pyridin-3-yl)pyrido[3,2-d]pyrimidin-2-yl)phenyl)ureido)-benzamide]",IC50,mTOR kinase,< 50 nM
same,IC50,[1],< 50 nM
"Cc1ccc(-c2ccc3c(N4CCOCC4)nc(-c4ccc(NC(=O)Nc5ccc(C(=O)N(C)C)c(F)c5)cc4)nc3c2)o1 [Example 266, 2-fluoro-N,N-dimethyl-4-(3-(4-(7-(5-methylfuran-2-yl)-4-morpholino-quinazolin-2-yl)phenyl)ureido)-benzamide]",IC50,mTOR kinase,50 to 200 nM
same,IC50,[1],50 to 200 nM
"Cc1nn(C)c(C)c1-c1ccc2c(N3CCOCC3)nc(-c3ccc(NC(=O)Nc4ccc(C(=O)N(C)C)cc4)cc3F)nc2c1 [Example 269, 4-(3-(3-fluoro-4-(4-morpholino-7-(1,3,5-trimethyl-1H-pyrazol-4-yl)quinazolin-2-yl)phenyl)ureido)-N,N-dimethyl-benzamide]",IC50,mTOR kinase,< 50 nM
same,IC50,[1],< 50 nM
"COc1ncccc1-c1ccc2c(N3CCOCC3)nc(-c3ccc(NC(=O)Nc4ccc(C(=O)N(C)C)cc4)cc3F)nc2c1 [Example 270, 4-(3-(3-fluoro-4-(7-(2-methoxypyridin-3-yl)-4-morpholino-quinazolin-2-yl)phenyl)ureido)-N,N-dimethyl-benzamide]",IC50,mTOR kinase,50 to 200 nM
same,IC50,[1],50 to 200 nM
"Cc1ccc(-c2ccc3c(N4CCOCC4)nc(-c4ccc(NC(=O)Nc5ccc(C(=O)N(C)C)cc5)cc4F)nc3c2)cn1 [Example 271, 4-(3-(3-fluoro-4-(7-(6-methylpyridin-3-yl)-4-morpholino-quinazolin-2-yl)phenyl)ureido)-N,N-dimethyl-benzamide]",IC50,mTOR kinase,< 50 nM
same,IC50,[1],< 50 nM
"Cc1ncccc1-c1ccc2c(N3CCOCC3)nc(-c3ccc(NC(=O)Nc4ccc(C(=O)N(C)C)cc4)cc3F)nc2c1 [Example 272, 4-(3-(3-fluoro-4-(7-(2-methylpyridin-3-yl)-4-morpholino-quinazolin-2-yl)phenyl)ureido)-N,N-dimethyl-benzamide]",IC50,mTOR kinase,50 to 200 nM
same,IC50,[1],< 50 nM

# — patent US9115092B2, “Substituted quinazoline and pyrido-pyrimidine derivatives” (Asana Biosciences, LLC, priority 2010, dated 2015)
